Results as given in patent publication US10668149B2, “Combination therapies for heme malignancies with anti-CD38 antibodies and survivin inhibitors” (Janssen Biotech, Inc., priority 2015, dated 2020).
“Also recorded” adds a separate entry of the source.

Key:
[1] = system: NK cells (CD3−CD138−CD56+ cells); assay: Effect of YM155 on NK cell viability by FACS; type: cell-based, human; conditions: 24 hours
Description: FIG. 3. […] HD-PBMCs and patient bone marrow mononuclear cells (BMMNCs) were incubated with the indicated concentrations of YM155 for 24 hours. The number of viable CD3^−CD56^+ NK cells was determined by flow cytometry and the percent lysis was calculated using the untreated samples as negative control. Effect of YM155 on NK cell viability was evaluated first. BM-MNCs of MM patients were cultured in the presence of different doses of YM155 for 24 hours. Viability of MM cells (CD138^+ cells) and NK cells (CD3^−CD138^−CD56^+ cells) were determined by FACS.

RPMI-8226 cells = assay: Compartment-specific BLI-based ADCC cytotoxicity assay, RPMI-8226; type: cell-based, human; conditions: 4 hours; for lysis of cells: daratumumab 0.3 μg/ml, YM155 1 nM, PBMC effector:target 40:1
Description: (§1) hBMSC were plated at a density of 1×10^4 cells/well in white opaque flat-bottomed 96-well plates (Costar) in 100 μl culture medium. After an adherence period of six hours, luc-transduced MM cell lines were added at a density of 1×10^4 cells/well in BMSC-coated or uncoated wells. In experiments in which YM155 was tested, YM155 was added at indicated concentrations together with MM cells. After 16-20 hours, daratumumab was added at indicated concentrations and left for 15 minutes at room temperature. Freshly isolated PBMC from healthy individuals were then added as effector cells at the indicated effector target ratios. 4 hours after addition of PBMC, 125 μg/ml beetle luciferin (Promega) was added and the bioluminescent signal emitted from surviving MM cells was determined within 20 minutes using a luminometer (SpectraMax, Molecular Devices). The percentage survival of MM cells was calculated using the formula: % survival=(mean bioluminescent signal in the absence of PBMCs/mean bioluminescent signal in the presence of PBMCs)×100%. In these assays the survival of MM cells is a direct reflection of ADCC mediated lysis and correlates with classical chromium release assays as described in McMillin et al., Nat Med 16:483-489, 2010.
Induction of ADCC by healthy donor BMSCs against two CD38^+ luciferase transduced MM cell lines, UM9 and RPMI was tested with serial concentrations of daratumumab in the presence or absence of HD-PBMCs as effector cells in compartment-specific BLI-based cytotoxicity assays.
In the assays, daratumumab and YM155 were used at a concentration of 0.3 μg/ml and 1 nM, respectively, for RPMI-8226 cells and at a concentration of 1 μg/ml and 120 nM for MM patient samples, respectively. Healthy donor PBMCs were used as effector cells at effector:target cell ratio of 40:1 for RPMI-8226 cells and 30:1 for MM patient samples.

MM cell line UM9 = assay: In vivo tumor targeting, UM9 in humanized BM-like scaffolds; parameters: species or system RAG2−/−γc−/− mice; conditions: UM9 scaffolds s.c.; YM155 1 mg/kg/d for 10 days by s.c. infusion pump; T cell-depleted HD-PBMCs given
Source text: FIG. 5. Antitumor effect of daratumumab and YM155 combination therapy. Analysis of tumor load per treatment group in RAG2^−/−γc^−− mice implanted with UM9 cells. Hybrid scaffolds coated with human MSCs and loaded with luciferase transduced MM cell line UM9 were implanted subcutaneously in the back of RAG2^−/−γc^−− mice (4 scaffolds per mice). Ten days after implantation, the growing tumors were visualized and quantified by BLI. Different groups of mice (n=4) were then either treated with vehicle control (control) or treated with daratumumab, YM155 or daratumumab plus YM155 as indicated. […] Mice were monitored weekly by BLI. Results are expressed as the mean tumor load in each scaffold. […] The statistical differences between mice treated with daratumumab and mice treated with daratumumab plus YM155 were calculated using the Mann-Whitney U-test. […]
The in vivo relevance of the combination of daratumumab with YM155 was tested in the preclinical xenograft model in RAG2^−/−gc^−/− mice, in which MM tumors were grown in a humanized BM-like niche created by subcutaneous implantation of ceramic scaffolds coated with human BMSCs. […] Ten days after implantation, the growing tumors were visualized and quantified by BLI. […] Mice were monitored weekly by BLI. […] Statistical differences between mice treated with daratumumab and mice treated with daratumumab plus YM155 were calculated using the Mann-Whitney U-test.

MM cells (CD138+ cells) = assay: Viability of MM cells in BM-MNCs cultured with YM155 by FACS; type: cell-based, human; conditions: BM-MNCs of MM patients; different doses of YM155; 24 hours
Description: Effect of YM155 on NK cell viability was evaluated first. BM-MNCs of MM patients were cultured in the presence of different doses of YM155 for 24 hours. Viability of MM cells (CD138^+ cells) and NK cells (CD3^−CD138^−CD56^+ cells) were determined by FACS.

UM9 MM cells = assay: Compartment-specific BLI-based ADCC cytotoxicity assay, UM9; type: cell-based, human; conditions: serial concentrations, PBMC:MM 30:1, 4 hours
Description: as §1, with “2010. […]” for “2010.”

primary CD138+ MM cells = assay: FACS based ADCC assay in Multiple Myeloma BM-MNC; type: cell-based, human; conditions: presence of autologous MM-BMSCs; both donors; 24 hours
Description: Frozen BM-MNCs from MM patients with 15-35% CD138^+ MM cells were used in FACS-based ADCC assays. The cells were thawed and cultured in 10% HS in RPMI. After 16-20 h, BM-MNCs were counted by trypan blue exclusion and 4×10^4 cells/well were plated in 96 round bottom plates. Daratumumab and/or YM155 were added in the wells as indicated per experiment. After 24 hours, cells were stained with fluorescent conjugated anti-CD138, anti-CD38, anti-CD56 and anti-CD3 antibodies and the survival of primary CD138^+ MM cells in the BM-MNCs was determined by FACS as previously described (Groen et al., Blood 120:e9-e16, 2012). Percentage lysis of MM cells was deduced using the following formula: % lysis cells=1−(counts of surviving CD138^+ cells in treated wells/counts of number of surviving CD138^+ cells in control wells)×100%.
Ability of BMSCs to protect primary MM cells from daratumumab-induced ADCC was also evaluated in a FACS-based ADCC assay using methodology described above. In the assays, BM-MNCs containing at least 15% CD138^+ malignant plasma cells and sufficient numbers of autologous effector NK cells were incubated with daratumumab to induce ADCC. The BM-MNCs were tested either alone or in co-culture with autologous BMSCs to evaluate the effect of BMSCs. FACS-based viability assay was performed after 24 hours of culture to determine CD138^+ surviving cells and calculate lysis. […]

Compound | viability of NK cells ([1]; BM-MNCs of MM patients, different doses of YM155) | NK cell lysis ([1]; HD-PBMCs and patient BMMNCs, indicated concentrations of YM155) | lysis of cells (RPMI-8226 cells; absence of BMSCs) | lysis of cells (RPMI-8226 cells; presence of BMSCs) | tumor growth (BLI) (MM cell line UM9) | viability of MM cells (CD138+ cells) (MM cells (CD138+ cells)) | daratumumab-induced ADCC (RPMI-8226 cells; absence of BMSCs, serial concentrations, PBMC:MM 30:1) | sensitivity to daratumumab-induced ADCC (RPMI-8226 cells; presence of BMSCs, serial concentrations, PBMC:MM 30:1) | daratumumab-induced ADCC (UM9 MM cells; absence of BMSCs) | sensitivity to daratumumab-induced ADCC (UM9 MM cells; presence of BMSCs) | induction of ADCC of primary MM cells (primary CD138+ MM cells)
COCCn1c2c([n+](Cc3cnccn3)c1C)C(=O)c1ccccc1C2=O [YM155, 4,9-Dihydro-1-(2-methoxyethyl)-2-methyl-4,9-dioxo-3-(2-pyrazinylmethyl)-1H-naphth[2,3-d]imidazolium bromide] | not affected; also recorded: does not negatively interfere | does not induce NK cell lysis | about 20% | no effect | more pronounced | some toxicity | – | – | – | – | –
daratumumab: anti-CD38 antibody of IgG1/κ subtype, VH SEQ ID NO: 4 and VL SEQ ID NO: 5 | – | – | about 20% | about 10% | marginal effect | – | dose dependent fashion | less sensitive | dose dependent fashion | less sensitive | less efficient
